Our source for the emission maximum values is the Deep4Chem optical property database.

A short description of this data set: solvent given as SMILES.

The structures appear in SMILES notation.

Compound `CCCCCCCCc1ccc(-c2ccc(-c3cc(-c4ccc(-c5ccc(CCCCCCCC)s5)c5nsnc45)c4ccc5c(-c6ccc(-c7ccc(CCCCCCCC)s7)c7nsnc67)cc(-c6ccc(-c7ccc(CCCCCCCC)s7)c7nsnc67)c6ccc3c4c65)c3nsnc23)s1` gave an emission maximum (in ClC(Cl)Cl) of 541 nm.

For the setting “in C1CCOC1”, `CC(C)(C)c1ccc(C2=Cc3cc4c(cc3P2(=O)c2ccccc2)C=C(c2ccc(C(C)(C)C)cc2)P4(=O)c2ccccc2)cc1` (stereo not drawn) had an emission maximum of 495 nm.

The compound `C1=Cc2ccc(N(c3ccccc3)c3cccc4ccccc34)cc2C2(c3cc(N(c4ccccc4)c4cccc5ccccc45)ccc31)c1ccccc1-c1ccccc12` registered an emission maximum (in ClCCl) of 454 nm.

In the case of `CN(C)c1ccc(C(=O)Nc2cccc(Cl)c2)cc1`, the emission maximum is 338 nm (in C1CCCCC1), 455 nm (in C1CCOC1), 496 nm (in CC#N) and 445 nm (in CCOCC).

Under “in ClC(Cl)Cl”, `COc1ccc(-c2nc(-c3ccccc3)c(N(C)C)[se]2)cc1` registered an emission maximum of 438 nm.

Regarding `O=C1NC(=O)c2ccc(N3CCOCC3)c3cccc1c23`, the emission maximum (in ClC(Cl)Cl) is reported as 504 nm.

The compound `COc1ccc(-n2c(-c3ccc(-c4cncc5ccccc45)cc3)nc3c4ccccc4c4ccccc4c32)cc1` registered an emission maximum (in C1CCOC1) of 429 nm.

`CCN(CC)c1ccc2c(-c3ccccc3C(=O)[O-])c3ccc(=[N+](CC)CC)cc-3oc2c1`: the emission maximum (in CC#N) is recorded as 579 nm, the emission maximum (in CCO) came to 571 nm, the emission maximum (in CN(C)C=O) stood at 588 nm and the emission maximum (in O) is 580 nm.

On to `N#Cc1ccc(/C=C/C=C/C2=NC3C(=O)NC(N)=NC3N2[C@H]2C[C@H](O)[C@@H](CO)O2)cc1` (stereo partly drawn), for which the emission maximum reads like this: (in C1COCCO1) 486 nm; (in CC#N) 526 nm; (in CO) 522 nm.

Compound `CCN(CC)c1cc2oc3cc(O)c(F)cc3c(=O)c2cc1F` yielded an emission maximum (in CCO) of 438 nm.

With `CCCCCC(=O)c1ccc2c3c(sc2c1)-c1ccccc1P3(=O)c1ccccc1` (stereo not drawn), the emission maximum (in ClCCl) was 428 nm.

In the case of `CCN(CC)c1ccc(OC)c(C=O)c1`, the emission maximum is 548 nm (in CC#N); 600 nm (in CC(C)O); 470 nm (in CCCCCC); 518 nm (in CCOC(C)=O); 645 nm (in CO); 558 nm (in CS(C)=O). For the same compound, the emission maximum by setting is: (in Cc1ccccc1) 509 nm; (in ClCCl) 538 nm.

Consider `CC1=[N+]2C(=Cc3ccc(C)n3[B-]2(F)F)C=C1c1cc2n(c1)[B-](F)(F)[N+]1=CC=CC1=C2c1c(C)cc(C)cc1C`, for which the emission maximum runs as follows: (in C1CCCCC1) 636 nm; (in CCOC(C)=O) 683 nm.

`Brc1cnc(-c2ccncc2)s1` returned an emission maximum (in CO) of 396 nm.

The compound `c1ccc(-c2nnc(-c3ccc(N4c5ccccc5N(c5ccccc5)c5ccccc54)cc3)o2)cc1` displayed an emission maximum (in Cc1ccccc1) of 577 nm and an emission maximum (in c1cc(-n2c3ccccc3c3ccccc32)cc(-n2c3ccccc3c3ccccc32)c1) of 550 nm.

On to `F[B-]1(F)n2ccnc2-c2cccc[n+]21`, for which the emission maximum is on record as 338 nm (in C1CCCCC1); 353 nm (in C1CCOC1); 352 nm (in C1COCCO1); 359 nm (in CC#N); 337 nm (in CCCCCC); 362 nm (in CO). In addition, where the note is “in ClC(Cl)Cl”, the emission maximum was 356 nm.

Consider `CC(C)CCCCN1CCc2c1ccc1c3c(ccc21)C(=O)CCC3`, for which the emission maximum is reported as 433 nm (in C1CCCCC1); 489 nm (in CC#N); 512 nm (in CC(C)O); 481 nm (in CCC(C)=O); 522 nm (in CCO); 467 nm (in CCOC(C)=O). Further, the emission maximum is, setting by setting: (in CS(C)=O) 472 nm; (in Cc1ccccc1) 452 nm; (in ClCCl) 472 nm; (in Clc1ccccc1) 462 nm.

Where the note is “in Cc1ccccc1”, `c1cc2ccc3ccc4cc3c2cc1c1ccc2ccc3ccc(cc3c2c1)c1ccc2c(c1)c1cc4ccc1[C@]13OCCO[C@]21OCCO3` displayed an emission maximum of 421 nm.

Regarding `CC(C)(C)c1ccc2c3c(c4ccc(C(C)(C)C)cc4c2c1)=[N+]1C(=C(c2ccccc2)c2c(Br)c4c5ccc(C(C)(C)C)cc5c5cc(C(C)(C)C)ccc5c4n2[B-]1(F)F)C=3Br`, the emission maximum is, setting by setting: (in C1CCCCC1) 711 nm; (in C1CCOC1) 715 nm; (in CC#N) 714 nm; (in Cc1ccccc1) 715 nm; (in ClCCl) 717 nm.

`Cn1ccc(-n2cncn2)nc1=O` displayed an emission maximum (in O) of 366 nm.

As for `CCN(CC)c1ccc2c(c1)oc(=O)c1c(C)nc3c(c(-c4ccccc4)nn3C)c12`, where the note is “in ClCCl”, the emission maximum is recorded as 461 nm.

As to `Cc1ccc(-c2c3nc(c(-c4ccc(C)cc4)c4ccc([nH]4)c(-c4ccc(C)cc4)c4nc(c(-c5ccc(C)cc5)c5ccc2[nH]5)C=C4N2CCOCC2)C=C3)cc1`, under “in CS(C)=O”, the emission maximum came to 666 nm.

Turning to `CCCCCCCCCCC1(CCCCCCCCCC)c2cc(-c3nc4ccccc4s3)ccc2-c2ccc(N3C(=O)c4ccc5c6ccc7c8c(ccc(c9ccc(c4c59)C3=O)c86)C(=O)N(c3ccc4c(c3)C(CCCCCCCCCC)(CCCCCCCCCC)c3cc(-c5nc6ccccc6s5)ccc3-4)C7=O)cc21`, the emission maximum runs as follows: (in Cc1ccccc1) 536 nm; (in ClCCl) 533 nm.

For the setting “in C1CCOC1”, `CCCCCCCCCc1c2ccccc2cc2c1oc1c3c(c4ccccc4c12)-c1c(c2oc4cc5ccccc5cc4c2c2ccccc12)OCO3` registered an emission maximum of 416 nm.

Under “in C1CCOC1”, `CN(C)c1ccc(C2=C(c3ccccc3)c3oc4ccccc4[n+]3[B-](F)(F)O2)cc1` returned an emission maximum of 476 nm.

As for `CCc1c(C)c2n(c1C)[B-](F)(F)[N+]1=C(NCc3ccc(OC)cc3)C=CC1=C2C`, the emission maximum runs as follows: (in CC#N) 546 nm; (in CCCCCC) 554 nm; (in CCOC(C)=O) 549 nm; (in CO) 548 nm; (in ClCCl) 551 nm.

The compound `C[N+]1=C(/C=C/C2=C3Oc4c(cc5c6c4CCCN6CCC5)C(c4ccccc4C(=O)O)=C3CCC2)C(C)(C)c2ccccc21` returned an emission maximum (in CC#N) of 760 nm, an emission maximum (in CCO) of 745 nm, an emission maximum (in CO) of 749 nm and an emission maximum (in ClC(Cl)Cl) of 757 nm.

As for `N#Cc1c(-c2ccccc2)cc(N2c3ccccc3Oc3ccccc32)cc1-c1ccccc1`, the emission maximum (in C1CCCCC1) is 455 nm.

As to `COc1cc2c(cc1OC)C1=C[C@H](c3ccc(Cl)cc3)C3(C(C#N)=C(C#N)N1CC2)c1ccccc1-c1ccccc13`, the emission maximum (in ClCCl) stood at 405 nm.

Turning to `COc1ccc2c(c1)C(=O)c1ccccc1-2`, the emission maximum amounted to 518 nm (in C1CCCCC1) and 568 nm (in CC#N).

`CCN(CC)c1ccc2cc(-c3nc4cc(C(=O)Nc5cccc(C)c5)ccc4o3)c(=O)oc2c1` showed an emission maximum (in ClCCl) of 495 nm.

Turning to `CCCCCOc1ccc2c(c1)c1ccc3cccc4c5cccc6oc(=O)c2c(c65)c1c34`, the emission maximum (in C1CCOC1) is given as 462 nm.

For the compound `C(#Cc1nc2ccccc2s1)c1ccc(N(c2ccccc2)c2ccccc2)cc1`, the emission maximum (in Cc1ccccc1) is 437 nm.

In turn, `CCCCCCCCCCCCOc1cc2c3cc(OCCCCCCCCCCCC)c(OCCCCCCCCCCCC)cc3c3c(cc(OCCCCCCCCCCCC)c4nc5cc(C#Cc6ccc(CCCCCCCCCC)cc6)c(C#Cc6ccc(CCCCCCCCCC)cc6)cc5nc43)c2cc1OCCCCCCCCCCCC` yielded an emission maximum (in ClC(Cl)Cl) of 663 nm.

Under “in CO”, `CCN(CC)c1ccc(C2=C3C(C)=CC(/C=C/c4ccc(OCC(=O)OC)cc4)=[N+]3[B-](F)(F)n3c(C)cc(C)c32)cc1` had an emission maximum of 581 nm.

As to `c1ccc(-c2csc(-c3ccncc3)n2)cc1`, the emission maximum is, setting by setting: (in CC#N) 498 nm; (in CCO) 407 nm; (in CN(C)C=O) 402 nm; (in ClCCl) 472 nm.

On to `CN(C)c1ccc(/C=C2\CC/C(=C\c3ccc(N(C)C)cc3)C2=O)cc1`, for which the emission maximum is reported as 529 nm (in C1CCOC1); 493 nm (in C1COCCO1); 587 nm (in CC#N); 565 nm (in CC(C)=O); 590 nm (in CC(C)O); 613 nm (in CCO). Also, the emission maximum runs as follows: (in CCOC(C)=O) 528 nm; (in CN(C)C=O) 575 nm; (in CO) 635 nm; (in CS(C)=O) 588 nm; (in Cc1ccccc1) 482 nm; (in ClC(Cl)(Cl)Cl) 478 nm. Also, the emission maximum was 543 nm (in ClC(Cl)Cl), 547 nm (in ClCCl) and 497 nm (in S=C=S).

With `CCn1c2ccccc2c2cc(-c3cc(-c4ccc5c(c4)c4ccccc4n5CC)nc(N4CCCCC4)n3)ccc21`, the emission maximum reads like this: (in C1CCOC1) 408 nm; (in CCOC(C)=O) 409 nm; (in CN(C)C=O) 417 nm; (in Cc1ccccc1) 406 nm; (in ClCCl) 414 nm.

With `CN(C)c1ccc(-c2nc3ccccc3n2-c2ccccc2)cc1`, the emission maximum (in CC#N) is listed as 397 nm.

As for `CN1C(=CC2=C([O-])C(=CC3=[N+](C)c4ccccc4C3(C)C)C2=C2C(=O)NC(=O)NC2=O)C(C)(C)c2ccccc21`, the emission maximum (in ClC(Cl)Cl) came to 665 nm.

Compound `Cc1cc(-n2c3ccccc3c3cc4c(cc32)C2c3ccccc3C4c3ccccc32)c(C)cc1-c1nc(-c2ccccc2)nc(-c2ccccc2)n1` showed an emission maximum (in Cc1ccccc1) of 427 nm and an emission maximum (in O=P(c1ccccc1)(c1ccccc1)c1ccccc1Oc1ccccc1P(=O)(c1ccccc1)c1ccccc1) of 442 nm.
